{"source": "patent US6506767B1", "about": "“8-chloro-6,11-dihydro-11-(4-piperidylidine)-5H-benzo[5,6]cyclohepta[1-2-b] pyridine” (Schering Corporation, priority 1997, dated 2003)", "key": {"[1]": {"system": "histamine—induced lethality in guinea pigs", "assay": "prevention of histamine-induced lethality in guinea pigs", "format": "in vivo", "conditions": "standard animal model"}, "[2]": {"assay": "Stability testing for crystalline polymorph form 1", "format": "physicochemical", "conditions": "25, 30 and 40° C. at relative humidities of 60%, 60% and 75%, respectively"}}}
{"smiles": "Clc1ccc2c(c1)CCc1cccnc1C2=C1CCNCC1", "note": "[form 1, 8-chloro-6,11-dihydro-11-(4-piperidylidene)-5H-benzo[5,6]cyclohepta[1,2-b]pyridine]", "values": [{"measurement": "antihistaminic properties: prevention of histamine—induced lethality", "setting": "[1]", "value": "demonstrated"}, {"measurement": "change from initial sample % form 1 and related compounds", "setting": "[2]", "value": "< 1", "unit": "%"}]}
